Laboratory results published in paper PMC5905968, “Evaluation of the fusion inhibitor P3 peptide as a potential microbicide to prevent HIV transmission in women” (PLoS ONE, 2018).

Experiment: LC-MS/MS determination of P3 after exposure to seminal plasma or vaginal fluid simulant
Format: in vitro ADME, human
Conditions: triplicates; for P3 level: 37°C, LC-MS/MS, below limit of quantification (2.5 ppm)
Protocol: Individual standard solutions (0.25–250 ppm) of P3 were prepared in acetonitrile (99.9% LC–MS) (J.T.Baker, Deventer, the Netherlands) in the presence of SP (0.5 or 1.0%), VFS or growth medium (GM) and analyzed after 24h, 48h and 1 week. In order to precipitate the proteins in the biological fluids, 1 ml of acetonitrile (1:1) was added to 1 ml of sample and samples were centrifuged at 13,000 rpm for 10 min and filtered ([…] PVDF membrane; Chromafil®Xtra from Macherey-Nagel®) just before analysis, All samples were analyzed as triplicates.
The LC system was a Waters® Alliance 2695 (Waters®) equipped with a quaternary pump, solvent degasser, auto sampler and column oven, coupled to a Photodiode Array Detector Waters 996 PDA (Waters®) scanning from 210 to 600 nm. The separation was performed on a reversed phase column LiChrospher® 100 RP-18 (10 x 4.0mm; Merck®, Germany) operating at 35 °C, using an injection volume of 10 μl. The mobile phase consisted of water [Ultra-pure water (18.2MΩ.cm) from a Millipore-Direct Q3 UV system (Millipore, USA)] with TFA 0.1% (v/v) (98% p.a.; Merck®, Germany) (A) and acetonitrile with TFA 0.1% (v/v) (B) at a flow rate of 0.30 ml/min. The following gradient was used: 70% of A as initial conditions, 70% A to 30% A for 7 min. A cleaning step was performed using 100% of acetonitrile for 1 min and finally the column was re-equilibrated with 70% of eluent A for 5 min.
A triple quadrupole mass spectrometer MicroMass® Quattro micro (Micromass®, Waters®) with an electrospray ionization source (ESI) was coupled to the LC system, described above. The ion source conditions were optimized using a standard solution directly injected in the ion source: temperature 120°C, capillary voltage 3.0 kV and cone voltage 50 V. The compound was ionized in positive ion mode and the spectra, in Full Scan, were recorded in the range m/z 100–1700. All analyses were performed in multiple reactions monitoring (MRM) mode in order to achieve a high selectivity and sensitivity. […]

With CC[C@H](C)[C@H](NC(=O)[C@H](CC(N)=O)NC(=O)[C@H](C)NC(=O)[C@H](CCC(=O)O)NC(=O)[C@H](CC(C)C)NC(=O)[C@H](Cc1ccc(O)cc1)NC(=O)[C@H](CCCNC(=N)N)NC(=O)[C@@H](NC(=O)[C@H](CCC(N)=O)NC(=O)[C@H](CCC(N)=O)NC(=O)[C@H](CCC(=O)O)NC(=O)[C@H](Cc1c[nH]c2ccccc12)NC(=O)[C@H](CCC(=O)O)NC(=O)[C@H](CCC(N)=O)NC(=O)[C@H](Cc1c[nH]c2ccccc12)NC(C)=O)C(C)C)C(=O)N[C@@H](CO)C(=O)N[C@@H](CCC(N)=O)C(=O)N[C@@H](CCCNC(=N)N)C(=O)N[C@@H](CC(C)C)C(=O)N[C@@H](CCC(=O)O)C(=O)N[C@@H](CCC(N)=O)C(=O)N[C@@H](C)C(=O)N[C@@H](CCC(N)=O)C(=O)N[C@H](C(=O)N[C@@H](CCC(N)=O)C(=O)N[C@@H](CCC(N)=O)C(=O)N[C@@H](CCC(=O)O)C(=O)N[C@@H](CCCCN)C(=O)N[C@@H](CC(N)=O)C(=O)N[C@@H](CCSC)C(=O)N[C@@H](Cc1ccc(O)cc1)C(=O)N[C@@H](CCC(=O)O)C(=O)N[C@@H](CC(C)C)C(=O)N[C@@H](CCC(N)=O)C(N)=O)[C@@H](C)CC [P3] the P3 level (after 48h in 1% human seminal plasma) was under 2.5 µg/mL, the P3 level (after one week in 0.5% human seminal plasma) was under 2.5 µg/mL and the “detection of P3 in the presence of VFS” value (vaginal fluid simulant pH 4.2, LC-MS/MS (MRM)) was “readily detectable”.
